Laboratory results from ChEMBL document CHEMBL1147166, “Structure-activity relationships of methoctramine-related polyamines as muscarinic antagonist: effect of replacing the inner polymethylene chain with cyclic moieties” (Bioorg Med Chem, 2007).

Legend:
[1] = molecular target: T1, Muscarinic acetylcholine receptor M4 (Homo sapiens) (UniProt P08173); experiment: Antagonist potency at muscarinic receptor M4 in rabbit vas deferens; type: functional, tissue-based; conditions: Oryctolagus cuniculus, target entry is the homologue from another species
T1 sequence (whole entry): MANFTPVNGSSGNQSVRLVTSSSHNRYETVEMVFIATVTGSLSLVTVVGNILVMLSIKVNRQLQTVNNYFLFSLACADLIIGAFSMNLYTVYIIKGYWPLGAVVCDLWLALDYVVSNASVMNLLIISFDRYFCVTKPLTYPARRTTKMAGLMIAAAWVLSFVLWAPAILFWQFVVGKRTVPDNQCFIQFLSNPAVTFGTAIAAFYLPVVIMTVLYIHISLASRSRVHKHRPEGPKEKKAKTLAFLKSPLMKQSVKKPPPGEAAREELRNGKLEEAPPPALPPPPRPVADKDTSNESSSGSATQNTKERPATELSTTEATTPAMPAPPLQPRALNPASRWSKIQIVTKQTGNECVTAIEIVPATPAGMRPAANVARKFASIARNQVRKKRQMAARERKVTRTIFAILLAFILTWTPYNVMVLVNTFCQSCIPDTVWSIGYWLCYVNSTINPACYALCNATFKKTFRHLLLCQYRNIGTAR

[2] = molecular target: Muscarinic acetylcholine receptor M3 (Cavia porcellus) (UniProt Q8VH26); experiment: Antagonist potency at muscarinic receptor M3 in guinea pig ileum; type: functional, tissue-based
[3] = molecular target: T2, Muscarinic acetylcholine receptor M2 (Homo sapiens) (UniProt P08172); experiment: Antagonist potency at muscarinic receptor M2 in guinea pig atrium; type: functional, tissue-based; conditions: Cavia porcellus; Cardiac atrium; target entry is the homologue from another species
T2 sequence (whole entry): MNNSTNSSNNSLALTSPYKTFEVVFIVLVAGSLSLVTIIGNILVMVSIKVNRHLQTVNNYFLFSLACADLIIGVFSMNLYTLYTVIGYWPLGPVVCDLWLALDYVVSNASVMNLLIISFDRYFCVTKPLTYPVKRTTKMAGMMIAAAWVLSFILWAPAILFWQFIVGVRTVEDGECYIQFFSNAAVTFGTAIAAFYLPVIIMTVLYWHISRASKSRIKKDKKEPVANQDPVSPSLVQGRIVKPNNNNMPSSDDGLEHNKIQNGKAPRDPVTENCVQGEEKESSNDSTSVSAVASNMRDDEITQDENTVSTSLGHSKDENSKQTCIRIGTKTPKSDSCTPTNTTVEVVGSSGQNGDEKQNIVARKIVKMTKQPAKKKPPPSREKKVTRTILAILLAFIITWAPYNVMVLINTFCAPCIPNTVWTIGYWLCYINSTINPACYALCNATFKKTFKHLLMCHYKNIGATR

Mus musculus [4] = experiment: Antinociceptive activity in mouse assessed as licking latency at 0.05 ug, icv after 45 mins by hot plate method; type: functional
Mus musculus [5] = experiment: Antinociceptive activity in mouse assessed as licking latency at 1.0 ug, icv after 30 mins by hot plate method; type: functional
[6] = molecular target: Muscarinic acetylcholine receptor M3 (Homo sapiens, UniProt P20309); experiment: Displacement of [3H] N-methyl-scopolamine chloride from human muscarinic receptor M3 expressed in CHO cells; type: cell-based
Mus musculus [7] = experiment: Antinociceptive activity in mouse assessed as licking latency at 0.005 ug, icv after 45 mins by hot plate method; type: functional
[8] = molecular target: T3, Muscarinic acetylcholine receptor M1 (Homo sapiens, UniProt P11229); experiment: Displacement of [3H] N-methyl-scopolamine chloride from human muscarinic receptor M1 expressed in CHO cells; type: cell-based
T3 sequence (P11229 whole entry): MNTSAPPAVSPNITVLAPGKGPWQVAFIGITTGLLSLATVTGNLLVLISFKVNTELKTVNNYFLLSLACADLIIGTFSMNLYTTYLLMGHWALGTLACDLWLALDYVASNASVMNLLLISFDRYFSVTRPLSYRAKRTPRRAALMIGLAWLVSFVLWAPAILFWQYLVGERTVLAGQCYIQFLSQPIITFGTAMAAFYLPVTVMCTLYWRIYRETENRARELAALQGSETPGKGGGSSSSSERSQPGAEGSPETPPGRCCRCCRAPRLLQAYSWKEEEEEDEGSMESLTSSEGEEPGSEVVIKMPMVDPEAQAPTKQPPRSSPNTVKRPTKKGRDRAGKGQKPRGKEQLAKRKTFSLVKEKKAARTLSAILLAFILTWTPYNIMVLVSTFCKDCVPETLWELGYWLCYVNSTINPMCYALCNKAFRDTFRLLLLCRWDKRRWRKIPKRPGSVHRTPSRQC

Mus musculus [9] = experiment: Antinociceptive activity in mouse assessed as licking latency at 0.05 ug, icv after 15 mins by hot plate method; type: functional
Mus musculus [10] = experiment: Antinociceptive activity in mouse assessed as licking latency at 0.01 ug, icv after 45 mins by hot plate method; type: functional
Mus musculus [11] = experiment: Antinociceptive activity in mouse assessed as licking latency at 0.005 ug, icv after 15 mins by hot plate method; type: functional
Mus musculus [12] = experiment: Antinociceptive activity in mouse assessed as licking latency at 1.0 ug, icv after 60 mins by hot plate method; type: functional
Mus musculus [13] = experiment: Antinociceptive activity in mouse assessed as licking latency at 0.01 ug, icv after 15 mins by hot plate method; type: functional
Mus musculus [14] = experiment: Antinociceptive activity in mouse assessed as licking latency at 0.005 ug, icv after 60 mins by hot plate method; type: functional
Mus musculus [15] = experiment: Antinociceptive activity in mouse assessed as licking latency at 0.005 ug, icv after 30 mins by hot plate method; type: functional
Mus musculus [16] = experiment: Antinociceptive activity in mouse assessed as licking latency at 0.01 ug, icv after 30 mins by hot plate method; type: functional
[17] = molecular target: T4, Muscarinic acetylcholine receptor M4 (Homo sapiens, UniProt P08173); experiment: Displacement of [3H] N-methyl-scopolamine chloride from human muscarinic receptor M4 expressed in CHO cells; type: cell-based
T4 sequence (P08173 whole entry): T1 sequence (whole entry)

Mus musculus [18] = experiment: Antinociceptive activity in mouse assessed as licking latency at 1.0 ug, icv after 45 mins by hot plate method; type: functional
Mus musculus [19] = experiment: Antinociceptive activity in mouse assessed as licking latency at 0.05 ug, icv after 30 mins by hot plate method; type: functional
[20] = molecular target: T5, Muscarinic acetylcholine receptor M5 (Homo sapiens, UniProt P08912); experiment: Displacement of [3H] N-methyl-scopolamine chloride from human muscarinic receptor M5 expressed in CHO cells; type: cell-based
T5 sequence (P08912 whole entry): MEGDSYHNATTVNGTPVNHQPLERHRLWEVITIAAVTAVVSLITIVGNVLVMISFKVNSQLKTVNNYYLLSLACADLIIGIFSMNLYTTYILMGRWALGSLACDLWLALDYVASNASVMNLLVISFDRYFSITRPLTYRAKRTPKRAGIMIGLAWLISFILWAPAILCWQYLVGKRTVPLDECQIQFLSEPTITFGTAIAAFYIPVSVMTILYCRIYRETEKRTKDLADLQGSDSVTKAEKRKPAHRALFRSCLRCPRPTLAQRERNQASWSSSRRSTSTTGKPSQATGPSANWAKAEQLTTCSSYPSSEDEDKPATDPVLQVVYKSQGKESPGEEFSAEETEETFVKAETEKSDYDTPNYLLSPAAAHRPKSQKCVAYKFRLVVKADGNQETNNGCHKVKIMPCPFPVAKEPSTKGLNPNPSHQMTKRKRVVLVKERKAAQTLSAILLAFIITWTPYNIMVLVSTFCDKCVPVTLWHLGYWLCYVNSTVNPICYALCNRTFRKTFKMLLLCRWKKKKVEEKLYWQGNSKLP

Mus musculus [21] = experiment: Antinociceptive activity in mouse assessed as licking latency at 0.05 ug, icv after 60 mins by hot plate method; type: functional
Mus musculus [22] = experiment: Antinociceptive activity in mouse assessed as licking latency at 0.01 ug, icv after 60 mins by hot plate method; type: functional
Mus musculus [23] = experiment: Antinociceptive activity in mouse assessed as licking latency at 1.0 ug, icv after 15 mins by hot plate method; type: functional
Acetylcholinesterase = Acetylcholinesterase (Homo sapiens, UniProt P22303); experiment: Inhibition of human erythrocyte recombinant AchE after 20 mins
Cholinesterase = Cholinesterase (Homo sapiens, UniProt P06276); experiment: Inhibition of human serum recombinant BChE after 20 mins
Mus musculus [24] = experiment: Antinociceptive activity in mouse assessed as licking latency at 5 mg/kg, ip by hot plate method; type: functional; conditions: route intraperitoneal
Mus musculus [25] = experiment: Antinociceptive activity in mouse assessed as licking latency at 1 mg/kg, ip by hot plate method; type: functional; conditions: route intraperitoneal

Chain of Muscarinic acetylcholine receptor M3 (Cavia porcellus) (Q8VH26 1-587): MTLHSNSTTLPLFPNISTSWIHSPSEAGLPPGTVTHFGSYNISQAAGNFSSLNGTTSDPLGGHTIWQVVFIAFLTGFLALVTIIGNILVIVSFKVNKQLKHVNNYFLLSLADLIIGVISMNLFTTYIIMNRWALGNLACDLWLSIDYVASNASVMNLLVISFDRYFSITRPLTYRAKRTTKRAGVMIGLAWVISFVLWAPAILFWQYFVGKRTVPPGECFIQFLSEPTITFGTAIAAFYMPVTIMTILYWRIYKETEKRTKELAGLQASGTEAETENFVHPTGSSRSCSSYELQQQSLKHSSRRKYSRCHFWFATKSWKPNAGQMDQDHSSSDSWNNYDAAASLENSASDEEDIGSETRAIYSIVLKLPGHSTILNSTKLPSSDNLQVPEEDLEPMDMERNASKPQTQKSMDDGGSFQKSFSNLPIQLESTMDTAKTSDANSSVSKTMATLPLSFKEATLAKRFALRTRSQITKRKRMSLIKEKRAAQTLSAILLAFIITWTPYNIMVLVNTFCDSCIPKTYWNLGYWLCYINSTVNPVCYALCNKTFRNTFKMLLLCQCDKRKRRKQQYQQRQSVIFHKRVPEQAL
Chain of Acetylcholinesterase (P22303 whole entry): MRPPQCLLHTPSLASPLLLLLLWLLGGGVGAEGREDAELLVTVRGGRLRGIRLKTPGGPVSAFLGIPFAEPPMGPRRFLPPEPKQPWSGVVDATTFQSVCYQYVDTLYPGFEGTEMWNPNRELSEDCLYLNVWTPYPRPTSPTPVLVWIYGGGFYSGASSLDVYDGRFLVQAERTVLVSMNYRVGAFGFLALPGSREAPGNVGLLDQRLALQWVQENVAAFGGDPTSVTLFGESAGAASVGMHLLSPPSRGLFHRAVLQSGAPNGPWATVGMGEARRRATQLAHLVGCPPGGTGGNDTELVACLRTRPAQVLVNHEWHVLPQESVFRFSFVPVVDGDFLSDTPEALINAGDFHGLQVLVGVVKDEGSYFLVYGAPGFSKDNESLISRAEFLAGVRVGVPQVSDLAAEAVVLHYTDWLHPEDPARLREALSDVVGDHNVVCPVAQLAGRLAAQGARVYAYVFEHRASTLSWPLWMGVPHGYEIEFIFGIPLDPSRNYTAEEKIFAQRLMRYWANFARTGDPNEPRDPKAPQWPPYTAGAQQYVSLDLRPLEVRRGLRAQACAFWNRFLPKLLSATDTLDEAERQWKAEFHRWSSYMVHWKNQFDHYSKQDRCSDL
Chain of Cholinesterase (P06276 whole entry): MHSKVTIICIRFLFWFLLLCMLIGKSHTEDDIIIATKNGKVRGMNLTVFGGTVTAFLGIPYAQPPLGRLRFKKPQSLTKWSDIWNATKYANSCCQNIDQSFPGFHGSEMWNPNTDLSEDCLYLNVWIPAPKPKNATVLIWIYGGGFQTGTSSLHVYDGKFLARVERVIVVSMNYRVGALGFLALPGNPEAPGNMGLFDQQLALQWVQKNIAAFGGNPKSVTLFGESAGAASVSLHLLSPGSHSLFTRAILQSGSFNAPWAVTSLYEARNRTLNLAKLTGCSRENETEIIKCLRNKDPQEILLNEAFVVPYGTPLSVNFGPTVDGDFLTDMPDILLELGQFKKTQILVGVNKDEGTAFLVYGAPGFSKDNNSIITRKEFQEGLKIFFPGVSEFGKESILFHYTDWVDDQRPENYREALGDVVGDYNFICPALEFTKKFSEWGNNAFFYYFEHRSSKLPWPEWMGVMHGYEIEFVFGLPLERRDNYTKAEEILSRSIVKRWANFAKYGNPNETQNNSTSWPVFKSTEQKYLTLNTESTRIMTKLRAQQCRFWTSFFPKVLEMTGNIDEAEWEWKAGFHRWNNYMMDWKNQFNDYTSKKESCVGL
Chain of Muscarinic acetylcholine receptor M3 (P20309 whole entry): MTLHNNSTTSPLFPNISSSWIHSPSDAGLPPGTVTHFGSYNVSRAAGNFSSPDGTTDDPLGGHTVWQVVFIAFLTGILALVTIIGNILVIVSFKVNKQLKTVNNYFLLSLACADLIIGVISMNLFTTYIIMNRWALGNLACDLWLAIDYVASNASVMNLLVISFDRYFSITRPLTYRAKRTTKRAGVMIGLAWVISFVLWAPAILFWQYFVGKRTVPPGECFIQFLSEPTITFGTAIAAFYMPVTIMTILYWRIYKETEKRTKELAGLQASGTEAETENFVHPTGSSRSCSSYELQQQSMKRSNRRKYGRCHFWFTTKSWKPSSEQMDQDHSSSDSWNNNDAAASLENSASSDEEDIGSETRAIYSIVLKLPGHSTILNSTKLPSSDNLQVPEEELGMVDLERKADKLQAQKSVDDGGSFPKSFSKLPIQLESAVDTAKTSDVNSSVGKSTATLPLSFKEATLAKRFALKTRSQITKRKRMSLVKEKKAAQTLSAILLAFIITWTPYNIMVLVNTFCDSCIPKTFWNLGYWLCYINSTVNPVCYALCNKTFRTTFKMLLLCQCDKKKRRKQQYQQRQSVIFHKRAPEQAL

Row | SMILES | pKb [1] | pKb [2] | pKb [3] | also measured
1 | COc1ccccc1CNCCCCCCN1CCC(C2CCN(CCCCCCNCc3ccccc3OC)CC2)CC1 | 6.13 | 6.08 | 7.12 | 
2 | COc1ccccc1CNCCCCCC(=O)N1CCC(CCCC2CCN(C(=O)CCCCCNCc3ccccc3OC)CC2)CC1 | < 5 | 5.09 | 5.11 | 
3 | COc1ccccc1CNCCCCCC(=O)N1CCC(CC2CCN(C(=O)CCCCCNCc3ccccc3OC)CC2)CC1 | 5.37 | 5.48 | 6.29 | 
4 | COc1ccccc1CNCCCCCCNCCCCCCCCNCCCCCCNCc1ccccc1OC [METHOCTRAMINE] | 6.45 | 6.32 |  | Time (Mus musculus [4]): 18.7 s; Time (Mus musculus [5]): 21.3 s; Ki [6]: 525 nM; Time (Mus musculus [7]): 18.3 s; Ki [8]: 83.2 nM; Time (Mus musculus [9]): 24.1 s; Time (Mus musculus [10]): 19.3 s; Time (Mus musculus [11]): 20.2 s; Time (Mus musculus [12]): 15.5 s; Time (Mus musculus [13]): 23.4 s; Time (Mus musculus [14]): 16.6 s; Time (Mus musculus [15]): 18.4 s; Time (Mus musculus [16]): 22.5 s; Ki [17]: 107 nM; Time (Mus musculus [18]): 17.5 s; Time (Mus musculus [19]): 23.9 s; Ki [20]: 550 nM; Time (Mus musculus [21]): 14.4 s; Time (Mus musculus [22]): 17.2 s; Time (Mus musculus [23]): 20.6 s
5 | COc1ccccc1CNCCCCCC(=O)N1CCC(CCC2CCN(C(=O)CCCCCNCc3ccccc3OC)CC2)CC1 | 6.09 | 5.14 | 5.91 | IC50 (Acetylcholinesterase): 135 nM; IC50 (Cholinesterase): 18600 nM
6 | COc1ccccc1CNCCCCCCN1CCC(CC2CCN(CCCCCCNCc3ccccc3OC)CC2)CC1 | 5.39 | 5.82 | 7.16 | 
7 | COc1ccccc1CNCCCCCC(=O)N1CCC(C2CCN(C(=O)CCCCCNCc3ccccc3OC)CC2)CC1 | 6 | 5.62 | 6.5 | 
8 | COc1ccccc1CNCCCCCC(=O)Nc1ccc(CCc2ccc(NC(=O)CCCCCNCc3ccccc3OC)cc2)cc1 | < 5 | < 5 | < 5 | 
9 | CN1[C@@H]2CC[C@H]1C[C@@H](OC(=O)C(CO)c1ccccc1)C2 (some centres not stated) [ATROPINE] |  |  |  | Activity (Mus musculus [24]): 14.9 s
10 | COc1ccccc1CNCCCCCCN1CCC(CCCC2CCN(CCCCCCNCc3ccccc3OC)CC2)CC1 | 5.64 | 6.37 | 7.52 | 
11 | COc1ccccc1CNCCCCCC(=O)Nc1ccc(-c2ccc(NC(=O)CCCCCNCc3ccccc3OC)cc2)cc1 | 5.21 |  | 5.31 | 
12 | COc1ccccc1CNCCCCCCNc1ccc(-c2ccc(NCCCCCCNCc3ccccc3OC)cc2)cc1 | < 5 |  | < 5 | 
13 | COc1ccccc1CNCCCCCCNc1ccc(Cc2ccc(NCCCCCCNCc3ccccc3OC)cc2)cc1 | < 5 | 5.35 | < 5 | 
14 | COc1ccccc1CNCCCCCC(=O)Nc1ccc(Cc2ccc(NC(=O)CCCCCNCc3ccccc3OC)cc2)cc1 | < 5 | 5.32 | 5.47 | 
15 | COc1ccccc1CNCCCCCCNc1ccc(CCc2ccc(NCCCCCCNCc3ccccc3OC)cc2)cc1 | < 5.52 |  | < 5 | 
16 | C=CCN1CC[C@]23c4c5ccc(O)c4O[C@H]2C(=O)CC[C@@]3(O)[C@H]1C5 [NALOXONE] |  |  |  | Activity (Mus musculus [25]): 15.1 s
